Results from patent US5047337A, “Ceramide-glycanase” (priority 1987, dated 1991).

Columns and labels:
[1] = system: Annelid ceramide-glycanase; test: Substrate specificity and pH optimum of annelid ceramide-glycanase from leeches and earthworms (general description); assay type: biochemical; conditions: enzyme obtained from leeches and earthworms
leech ceramide-glycanase = test: Hydrolysis of glycolipids with leech enzyme (TLC); assay type: biochemical, leech (Hirudo medicinalis, Macrobdella decora); conditions: 30 nmol substrate, pH 4.5, sodium taurodeoxycholate 200 μg, 37° C.
Description: Assays were performed in 10×75 mm glass tubes. […] Glycolipid substrates included LacCer, GbOse3 Cer, GbOse4 Cer, GbOse5 Cer, nLcOse4 Cer, GM3, GM2, GM1, GD1a and GT1. After the mixture was incubated at 37° C. for a preset time, the reaction was terminated by adding 5 volumes of chloroform:methanol (2:1). The mixture was vortexed and briefly centrifuged to separate the organic phase (lower) from the aqueous phase (upper). Under this condition the enzyme protein became insoluble and stayed at the interface. […] For detection of the released oligosaccharide, the aqueous phase was analyzed by thin-layer chromatography using n-butanol:acetic acid:H2 O (2:1:1) as the developing solvent. […] The chromatograms are seen in FIGS. 2 and 3.

[2] = system: earthworm ceramide-glycanase; test: Hydrolysis of glycolipids with earthworm enzyme (TLC); assay type: biochemical, Lumbricus terrestris; conditions: 37° C.; for release of ceramides from the glycolipid by earthworm ceramide-glycanase: one unit enzyme, 17 h, TLC; for hydrolysis of the glycolipid by earthworm ceramide-glycanase: 20 nmol substrate, pH 4.5, sodium taurodeoxycholate 400 μg, 16 hours
Description: The assay for ceramide-glycanase was carried out essentially according to the method described above in Example 3. […] Glycolipid substrates included LacCer, GbOse3 Cer, GT1, […] and GlcCer. […] The mixture was vortexed and centrifuged to separate the organic phase (lower) from the aqueous phase (upper). […] For the detection of the released oligosaccharide, the aqueous phase was analyzed by TLC using n-butanol:acetic acid:H2 O (2:1:1) as the developing solvent. […] The chromatograms are seen in FIGS. 5 and 6.

Substance	hydrolysis of the glycosphingolipid by annelid ceramide-glycanase [1]	release of intact oligosaccharide from the glycolipid by leech ceramide-glycanase (leech ceramide-glycanase)	release of ceramides from the glycolipid by earthworm ceramide-glycanase [2]	hydrolysis of the glycolipid by earthworm ceramide-glycanase [2]
3-sulfo-lactosyl ceramide	hydrolyzes	–	–	–
GD1a	hydrolyzes	liberated an intact sialic acid containing oligosaccharide	able to release ceramides	–
Galα1→4GalCer [DiGalCer]	–	–	–	not hydrolyzed
galactosylceramide [GalCer]	will not generally hydrolyze	–	–	refractory
globopentaoyl-ceramicde [GbOse5 Cer]	hydrolyzes	able to liberate the intact oligosaccharide	able to release ceramides	–
globotetraosyl-ceramide [GbOse4 Cer]	hydrolyzes	able to liberate the intact oligosaccharide	able to release ceramides	–
globotriaosyl-ceramide [GbOse3 Cer]	hydrolyzes	able to liberate the intact oligosaccharide	able to release ceramides	–
glucosylceramide [GlcCer]	will not generally hydrolyze	–	–	refractory
lacto-N-neotetraoyl-ceramide [nLcOse4 Cer]	hydrolyzes	able to liberate the intact oligosaccharide	–	–
lactosyl-ceramide [LacCer]	hydrolyzes	able to liberate the intact oligosaccharide	able to release ceramides	hydrolyzed
